According to patent US8455399B2, “N-(4-perfluoroalkyl-phenyl)-4-triazolyl-benzamides as insecticides” (Syngenta Crop Protection LLC, priority 2009, dated 2013):

Legend:
Type in all cases: in vivo
Spodoptera littoralis = Spodoptera littoralis (Egyptian cotton leafworm) leaf disc spray test; conditions: foliar, 72 h, 200 ppm sprayed on cotton leaf discs, 5 L1 larvae, mortality, feeding behavior, growth regulation 3 days after treatment
Text: Spodoptera Littoralis (Egyptian Cotton Leafworm): Cotton leaf discs were placed on agar in a 24-well microtiter plate and sprayed with test solutions at an application rate of 200 ppm. After drying, the leaf discs were infested with 5 L1 larvae. The samples were checked for mortality, feeding behavior, and growth regulation 3 days after treatment (DAT).

Heliothis virescens = Heliothis virescens (tobacco budworm) egg/artificial diet test; conditions: 96 h, 200 ppm (concentration in well 18 ppm), eggs 0-24 h old on artificial diet, egg mortality, larval mortality, growth regulation after 4 days
Experimental: Heliothis Virescens (Tobacco Budworm): Eggs (0-24 h old) were placed in 24-well microtiter plate on artificial diet and treated with test solutions at an application rate of 200 ppm (concentration in well 18 ppm) by pipetting. After an incubation period of 4 days, samples were checked for egg mortality, larval mortality, and growth regulation.

Plutella xylostella = Plutella xylostella (diamond back moth) artificial diet test; conditions: 144 h, 200 ppm (concentration in well 18 ppm), L2 larvae, larval mortality and growth regulation after 6 days
Experimental: Plutella Xylostella (Diamond Back Moth): 24-well microtiter plate (MTP) with artificial diet was treated with test solutions at an application rate of 200 ppm (concentration in well 18 ppm) by pipetting. After drying, the MTP's were infested with L2 larvae (7-12 per well). After an incubation period of 6 days, samples were checked for larval mortality and growth regulation.

Thrips tabaci = Thrips tabaci (onion thrips) leaf disc spray test; conditions: foliar, 168 h, 200 ppm sprayed on sunflower leaf discs, population of mixed ages, mortality after 7 days
Experimental: Thrips Tabaci (Onion Thrips): Sunflower leaf discs were placed on agar in a 24-well microtiter plate and sprayed with test solutions at an application rate of 200 ppm. After drying, the leaf discs were infested with an […] population of mixed ages. After an incubation period of 7 days, samples were checked for mortality.

Tetranychus urticae = Tetranychus urticae (two-spotted spider mite) leaf disc spray test; conditions: foliar, 192 h, 200 ppm sprayed on bean leaf discs, mite populations of mixed ages, egg, larval and adult mortality 8 days later
Text: Tetranychus Urticae (Two-Spotted Spider Mite): Bean leaf discs on agar in 24-well microtiter plates were sprayed with test solutions at an application rate of 200 ppm. After drying, the leaf discs are infested with mite populations of mixed ages. 8 days later, discs are checked for egg mortality, larval mortality, and adult mortality.

Diabrotica balteata = Diabrotica balteata (corn root worm) artificial diet test; conditions: 120 h, 200 ppm (concentration in well 18 ppm), L2 larvae, larval mortality and growth regulation after 5 days
Experimental: Diabrotica Balteata (Corn Root Worm): A 24-well microtiter plate (MTP) with artificial diet was treated with test solutions at an application rate of 200 ppm (concentration in well 18 ppm) by pipetting. After drying, the MTP's were infested with L2 larvae (6-10 per well). After an incubation period of 5 days, samples were checked for larval mortality and growth regulation.

Measured: pest or weed control at 200 ppm

CCc1cc(C(F)(C(F)(F)F)C(F)(F)C(F)(F)F)cc(C)c1NC(=O)c1ccc(-n2cncn2)c(NC(=O)c2ccc(F)cc2)c1 (stereo not drawn) [D6, 3-(4-Fluorobenzoylamino)-N-[2-ethyl-4-(1,2,2,3,3,3-hexafluoro-1-trifluoromethyl-propyl)-6-methylphenyl]-4-(1,2,4-triazol-1-yl)benzamide]
≥ 80%: all assays above

O=C(Nc1c(Br)cc(C(F)(C(F)(F)F)C(F)(F)C(F)(F)F)cc1Br)c1ccc(-n2cncn2)c(NC(=O)c2ccc(F)cc2Cl)c1 (stereo not drawn) [D9, 3-(2-Chloro-4-fluorobenzoylamino)-N-[2,6-dibromo-4-(1,2,2,3,3,3-hexafluoro-1-trifluoromethylpropyl)phenyl]-4-(1,2,4-triazol-1-yl)benzamide]
≥ 80%: all assays above

Cc1c(C(=O)Nc2cc(C(=O)Nc3c(Br)cc(C(F)(C(F)(F)F)C(F)(F)C(F)(F)F)cc3Br)ccc2-n2cncn2)cccc1[N+](=O)[O-] (stereo not drawn) [D10, 3-(2-Methyl-3-nitrobenzoylamino)-N-[2,6-dibromo-4-(1,2,2,3,3,3-hexafluoro-1-trifluoromethylpropyl)phenyl]-4-(1,2,4-triazol-1-yl)benzamide]
≥ 80%: all assays above
